Experimental data reported in ChEMBL document CHEMBL4808219, “Exploration of Benzo[b]carbazole-6,11-diones as anticancer agents: Synthesis and studies of hTopoIIα inhibition and apoptotic effects” (Bioorg Med Chem Lett, 2021).
The source made the active and inactive calls. No cut-off for these calls is given here.

Tests used:
[1] = Upregulation of p21 protein expression in human MDA-MB-231cells assessed as fold change in p21 expression at IC50 after 48 hrs by Western blot analysis relative to control; type: functional
MDA-MB-231 [2] = assay: Cytotoxicity against human MDA-MB-231 cells assessed as apoptotic nuclei at 1.5 uM by DAPI staining based fluorescence microscopic analysis (reference value: 11.11 to 14.29%); type: functional
MCF7 = assay: Cytotoxicity against human MCF7 cells assessed as reduction in cell viability incubated for 48 hrs by MTT assay; type: functional, cell-based; conditions: Homo sapiens, MCF7, 48 h; read-out: IC50
MDA-MB-231 [3] = assay: Induction of apoptosis in human MDA-MB-231cells as increase in cleaved PARP1 level by measuring fold change in cleaved PARP1 expression by Western blot analysis relative to control; type: functional
[4] = Downregulation of cyclinB1 protein expression in human MDA-MB-231cells assessed as fold change in cyclin B1 expression at IC50 after 48 hrs by Western blot analysis relative to control; type: functional
[5] = Cytotoxicity against human H357 cells assessed as reduction in cell viability incubated for 48 hrs by MTT assay; type: functional, cell-based; conditions: Homo sapiens, H357, 48 h; read-out: IC50
MDA-MB-231 [6] = assay: Cytotoxicity against human MDA-MB-231 cells assessed as apoptotic nuclei at 1 uM by DAPI staining based fluorescence microscopic analysis (reference value: 4.17 to 14.29%); type: functional
MDA-MB-231 [7] = assay: Cytotoxicity against human MDA-MB-231 cells assessed as reduction in cell viability incubated for 48 hrs by MTT assay; type: functional, cell-based; conditions: Homo sapiens, MDA-MB-231, 48 h; read-out: IC50
MDA-MB-231 [8] = assay: Cytotoxicity against human MDA-MB-231 cells assessed as apoptotic nuclei at 2.5 uM by DAPI staining based fluorescence microscopic analysis (reference value: 11.11 to 14.29%); type: functional
[9] = Downregulation of NFkappaB protein expression in human MDA-MB-231cells assessed as fold change in NF-kB expression at IC50 after 48 hrs by Western blot analysis relative to control; type: functional
MDA-MB-231 [10] = assay: Cell cycle arrest in human MDA-MB-231 cells assessed as accumulation at G2/M phase at IC50 measured after 48 hrs by propidium iodide staining based FACS analysis (reference value: 30.8+/-1.6 %); type: functional
HEK-293T = assay: Cytotoxicity against human HEK293T cells assessed as reduction in cell viability incubated for 48 hrs by MTT assay; type: cell-based
MDA-MB-231 [11] = assay: Cytotoxicity against human MDA-MB-231 cells assessed as increase in deformation and shrinkage of nuclei by DAPI staining-based fluorescence microscopic analysis; type: functional, cell-based; conditions: dose 0.5-2.5 µM
MDA-MB-231 [12] = assay: Cell cycle arrest in human MDA-MB-231 cells assessed as accumulation at sub G1 phase at IC50 measured after 48 hrs by propidium iodide staining based FACS analysis (reference value: 0.7+/-0.2 %); type: functional
[13] = Upregulation of p53 protein expression in human MDA-MB-231cells assessed as fold change in p53 expression at IC50 after 48 hrs by Western blot analysis relative to control; type: functional
[14] = Upregulation of cyclinD1 protein expression in human MDA-MB-231cells assessed as fold change in cyclin D1 expression at IC50 after 48 hrs by Western blot analysis relative to control; type: functional
MCF-10A = assay: Cytotoxicity against human MCF-10A cells; type: cell-based
MDA-MB-231 [15] = assay: Cell cycle arrest in human MDA-MB-231 cells assessed as accumulation at S phase at IC50 measured after 48 hrs by propidium iodide staining based FACS analysis (reference value: 9.2+/-0.3 %); type: functional
MDA-MB-231 [16] = assay: Cytotoxicity against human MDA-MB-231 cells assessed as reduction in cell survival by clonogenic assay; type: functional, cell-based
MDA-MB-231 [17] = assay: Induction of apoptosis in human MDA-MB-231 cells assessed as early apoptotic cells at IC50 by Annexin V/FITC-propidium iodide staining-based flow cytometric method (reference value: 7.1 +/- 0.4 %); type: functional
MDA-MB-231 [18] = assay: Induction of apoptosis in human MDA-MB-231 cells assessed as late apoptotic cells at IC50 by Annexin V/FITC-propidium iodide staining-based flow cytometric method (reference value: 1.2 +/- 0.3 %); type: functional
MDA-MB-231 [19] = assay: Cytotoxicity against human MDA-MB-231 cells assessed as normal nuclei at 0.5 uM by DAPI staining based fluorescence microscopic analysis (reference value: 85.71 to 88.89%); type: functional
MDA-MB-231 [20] = assay: Cytotoxicity against human MDA-MB-231 cells assessed as apoptotic nuclei at 0.5 uM by DAPI staining based fluorescence microscopic analysis (reference value: 11.11 to 14.29%); type: functional
MDA-MB-231 [21] = assay: Induction of apoptosis in human MDA-MB-231 cells assessed as viable cells at IC50 by Annexin V/FITC-propidium iodide staining-based flow cytometric method (reference value: 87.2 +/- 0.7 %); type: functional
MDA-MB-231 [22] = assay: Genotoxicity in human MDA-MB-231 cells assessed as induction of DNA damage at 2 uM incubated for 24 hrs by comet assay; type: functional, cell-based
MDA-MB-231 [23] = assay: Induction of apoptosis in human MDA-MB-231 cells assessed as upregulation of Bax level by measuring fold change in Bax expression by Western blot analysis relative to control; type: functional
[24] = Downregulation of Cdc25A protein expression in human MDA-MB-231cells assessed as fold change in Cdc25A expression at IC50 after 48 hrs by Western blot analysis relative to control; type: functional
MDA-MB-231 [25] = assay: Induction of apoptosis in human MDA-MB-231cells assessed as downregulation of Bcl-xl level by measuring fold change in Bcl-xl expression by Western blot analysis relative to control; type: functional
MDA-MB-231 [26] = assay: Cytotoxicity against human MDA-MB-231 cells assessed as apoptotic nuclei at 2 uM by DAPI staining based fluorescence microscopic analysis (reference value: 4.17 to 14.29%); type: functional
MDA-MB-231 [27] = assay: Cell cycle arrest in human MDA-MB-231 cells assessed as accumulation at G1 phase at IC50 measured after 48 hrs by propidium iodide staining based FACS analysis (reference value: 59.3+/-2.9 %); type: functional
MDA-MB-231 [28] = assay: Cytotoxicity against human MDA-MB-231 cells assessed as normal nuclei at 2.5 uM by DAPI staining based fluorescence microscopic analysis (reference value: 85.71 to 88.89%); type: functional
MDA-MB-231 [29] = assay: Cytotoxicity against human MDA-MB-231 cells assessed as normal nuclei at 1.5 uM by DAPI staining based fluorescence microscopic analysis (reference value: 85.71 to 88.89%); type: functional
MDA-MB-231 [30] = assay: Cytotoxicity against human MDA-MB-231 cells assessed as normal nuclei at 2 uM by DAPI staining based fluorescence microscopic analysis (reference value: 85.71 to 95.83%); type: functional
MDA-MB-231 [31] = assay: Cytotoxicity against human MDA-MB-231 cells assessed as normal nuclei at 1 uM by DAPI staining based fluorescence microscopic analysis (reference value: 85.71 to 95.83%); type: functional
MDA-MB-231 [32] = assay: Induction of apoptosis in human MDA-MB-231 cells assessed as necrotic cells at IC50 by Annexin V/FITC-propidium iodide staining-based flow cytometric method (reference value: 4.5 +/- 0.5 %); type: functional
[33] = Downregulation of CDC6 protein expression in human MDA-MB-231cells assessed as fold change in CDC6 expression at IC50 after 48 hrs by Western blot analysis relative to control; type: functional
[34] = molecular target: DNA topoisomerase 2-alpha (Homo sapiens) (UniProt P11388); assay: Inhibition of human topoisomerase 2alpha assessed as reduction in decatenation of kinetoplast DNA by agarose gel electrophoresis method
Sequence of DNA topoisomerase 2-alpha (Homo sapiens) (P11388 whole entry): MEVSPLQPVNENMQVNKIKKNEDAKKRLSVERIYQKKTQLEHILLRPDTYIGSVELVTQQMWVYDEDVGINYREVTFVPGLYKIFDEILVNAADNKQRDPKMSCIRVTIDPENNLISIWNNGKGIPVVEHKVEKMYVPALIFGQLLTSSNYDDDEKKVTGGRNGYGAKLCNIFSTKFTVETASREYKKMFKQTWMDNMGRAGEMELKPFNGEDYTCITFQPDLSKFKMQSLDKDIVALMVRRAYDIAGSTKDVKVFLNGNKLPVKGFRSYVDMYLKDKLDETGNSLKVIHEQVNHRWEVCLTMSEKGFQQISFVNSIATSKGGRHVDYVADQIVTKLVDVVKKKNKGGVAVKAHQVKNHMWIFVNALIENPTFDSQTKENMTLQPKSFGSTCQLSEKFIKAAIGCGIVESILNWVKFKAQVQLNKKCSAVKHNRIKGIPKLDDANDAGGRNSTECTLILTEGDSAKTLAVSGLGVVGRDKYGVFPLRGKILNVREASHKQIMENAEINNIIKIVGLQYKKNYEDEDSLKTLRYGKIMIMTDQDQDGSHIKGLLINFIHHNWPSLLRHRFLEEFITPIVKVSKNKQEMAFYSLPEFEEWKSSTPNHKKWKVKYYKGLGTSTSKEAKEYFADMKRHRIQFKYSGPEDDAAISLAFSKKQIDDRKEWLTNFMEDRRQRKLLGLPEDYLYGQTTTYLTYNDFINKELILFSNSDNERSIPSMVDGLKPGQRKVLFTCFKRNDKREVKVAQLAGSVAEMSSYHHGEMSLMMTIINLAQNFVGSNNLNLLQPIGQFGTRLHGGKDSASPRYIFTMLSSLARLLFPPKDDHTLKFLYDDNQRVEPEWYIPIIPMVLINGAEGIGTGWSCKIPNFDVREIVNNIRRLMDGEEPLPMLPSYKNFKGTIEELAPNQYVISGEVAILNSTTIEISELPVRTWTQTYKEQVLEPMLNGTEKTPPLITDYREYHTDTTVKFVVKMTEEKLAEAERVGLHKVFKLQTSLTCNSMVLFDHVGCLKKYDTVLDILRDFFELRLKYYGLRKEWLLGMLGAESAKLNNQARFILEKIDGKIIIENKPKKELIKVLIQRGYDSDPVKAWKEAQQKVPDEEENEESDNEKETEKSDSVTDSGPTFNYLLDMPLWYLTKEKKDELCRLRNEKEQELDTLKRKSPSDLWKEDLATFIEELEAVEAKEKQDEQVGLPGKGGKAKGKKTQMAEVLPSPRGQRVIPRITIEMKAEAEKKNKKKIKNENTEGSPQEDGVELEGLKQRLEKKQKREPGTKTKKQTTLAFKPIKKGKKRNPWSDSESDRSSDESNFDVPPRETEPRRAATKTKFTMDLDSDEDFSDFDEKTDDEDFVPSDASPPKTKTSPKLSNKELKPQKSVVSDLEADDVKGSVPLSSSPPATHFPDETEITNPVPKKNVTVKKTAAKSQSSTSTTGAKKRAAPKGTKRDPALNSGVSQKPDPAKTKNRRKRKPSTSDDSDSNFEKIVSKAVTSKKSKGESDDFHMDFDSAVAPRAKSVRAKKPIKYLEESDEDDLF

COc1cccc(NC2=CC(=O)c3ccccc3C2=O)c1
fold change (FC) [1]: 2.1
Activity (MDA-MB-231 [2]): 48.72%
IC50 (MCF7): 2 µM
fold change (FC) (MDA-MB-231 [3]): 0.3
fold change (FC) [4]: 0.3
IC50 [5]: 2.1 µM
Activity (MDA-MB-231 [6]): 36.11%
IC50 (MDA-MB-231 [7]): 2.1 µM
Activity (MDA-MB-231 [8]): 80.95%
fold change (FC) [9]: 0.7
Activity (MDA-MB-231 [10]): 23.3%
IC50 (HEK-293T): 4.5 µM
Activity (MDA-MB-231 [11]): Dose-Dependent Effect
Activity (MDA-MB-231 [12]): 11.8%
fold change (FC) [13]: 2.1
fold change (FC) [14]: 1.8
IC50 (MCF-10A): 90 µM
Activity (MDA-MB-231 [15]): 20.2%
IC50 (MDA-MB-231 [16]): 1.5 µM
Activity (MDA-MB-231 [17]): 26.1%
Activity (MDA-MB-231 [18]): 5.3%
Activity (MDA-MB-231 [19]): 82.05%
Activity (MDA-MB-231 [20]): 17.95%
Activity (MDA-MB-231 [21]): 50.1%
Activity (MDA-MB-231 [22]): Active
fold change (FC) (MDA-MB-231 [23]): 1.6
fold change (FC) [24]: 0.4
fold change (FC) (MDA-MB-231 [25]): 0.6
Activity (MDA-MB-231 [26]): 54.55%
Activity (MDA-MB-231 [27]): 44.7%
Activity (MDA-MB-231 [28]): 19.05%
Activity (MDA-MB-231 [29]): 51.28%
Activity (MDA-MB-231 [30]): 45.45%
Activity (MDA-MB-231 [31]): 63.89%
Activity (MDA-MB-231 [32]): 18.5%
fold change (FC) [33]: 0.4

COc1cc([C@@H]2c3cc4c(cc3[C@@H](O[C@@H]3O[C@@H]5CO[C@@H](C)O[C@H]5[C@H](O)[C@H]3O)[C@H]3COC(=O)[C@H]23)OCO4)cc(OC)c1O [ETOPOSIDE]
IC50 (MCF7): 45 µM
IC50 [5]: 32 µM
IC50 (MDA-MB-231 [7]): 48 µM
IC50 (HEK-293T): 22 µM
IC50 (MCF-10A): > 120 µM
IC50 (MDA-MB-231 [16]): 42 µM

CN(C1=CC(=O)c2ccccc2C1=O)c1ccccc1
fold change (FC) [1]: 2.3
Activity (MDA-MB-231 [2]): 30.77%
IC50 (MCF7): 1.5 µM
fold change (FC) (MDA-MB-231 [3]): 0.9
fold change (FC) [4]: 0.4
IC50 [5]: 2 µM
Activity (MDA-MB-231 [6]): 27.78%
IC50 (MDA-MB-231 [7]): 2 µM
Activity (MDA-MB-231 [8]): 78.57%
fold change (FC) [9]: 0.7
Activity (MDA-MB-231 [10]): 24.6%
IC50 (HEK-293T): 3.5 µM
Activity (MDA-MB-231 [11]): Dose-Dependent Effect
Activity (MDA-MB-231 [12]): 7.9%
fold change (FC) [13]: 2.5
fold change (FC) [14]: 1.5
IC50 (MCF-10A): 86 µM
Activity (MDA-MB-231 [15]): 27.1%
IC50 (MDA-MB-231 [16]): 1.2 µM
Activity (MDA-MB-231 [17]): 22.3%
Activity (MDA-MB-231 [18]): 4.8%
Activity (MDA-MB-231 [19]): 83.33%
Activity (MDA-MB-231 [20]): 16.67%
Activity (MDA-MB-231 [21]): 52.2%
Activity (MDA-MB-231 [22]): Active
fold change (FC) (MDA-MB-231 [23]): 2.5
fold change (FC) [24]: 0.3
fold change (FC) (MDA-MB-231 [25]): 0.8
Activity (MDA-MB-231 [26]): 56.41%
Activity (MDA-MB-231 [27]): 40.4%
Activity (MDA-MB-231 [28]): 21.43%
Activity (MDA-MB-231 [29]): 69.23%
Activity (MDA-MB-231 [30]): 43.59%
Activity (MDA-MB-231 [31]): 72.22%
Activity (MDA-MB-231 [32]): 20.7%
fold change (FC) [33]: 0.5

O=C1c2ccccc2C(=O)c2c1[nH]c1ccc(Cl)cc21
IC50 (MCF7): 4.5 µM
IC50 [5]: 4.6 µM
IC50 (MDA-MB-231 [7]): 4.4 µM
IC50 (HEK-293T): 6.3 µM
inhibition [34]: Active

COc1cc2[nH]c3c(c2c(OC)c1OC)C(=O)c1ccccc1C3=O
IC50 (MCF7): 8.2 µM
IC50 [5]: 9.4 µM
IC50 (MDA-MB-231 [7]): 8.1 µM
IC50 (HEK-293T): 10.5 µM
inhibition [34]: Active

COc1ccc(NC2=CC(=O)c3ccccc3C2=O)cc1OC
IC50 (MCF7): 6.4 µM
IC50 [5]: 6.2 µM
IC50 (MDA-MB-231 [7]): 6.2 µM
IC50 (HEK-293T): 6.3 µM
inhibition [34]: Active

CCC(C)c1ccc2[nH]c3c(c2c1)C(=O)c1ccccc1C3=O (stereo not drawn)
IC50 (MCF7): 6.3 µM
IC50 [5]: 7.1 µM
IC50 (MDA-MB-231 [7]): 5.4 µM
IC50 (HEK-293T): 9 µM
inhibition [34]: Active
